From US20120184590A1, “FORMULATIONS OF INDOLE-3-CARBINOL DERIVED ANTITUMOR AGENTS WITH INCREASED ORAL BIOAVAILABILITY” (UNIVERSITY OF KANSAS, priority 2009, published 2012)
Converted amounts (≈) assume the structure as drawn.

Legend:
[1] = Oral bioavailability of PEG400:Labrasol formulation in dogs (earlier finding); conditions: dog, in vivo
[2] = Solubility of SR13668 in various solvents; format: physicochemical; conditions: for solubility: thermodynamic from solid
Description: The other three systems are similar to the Solutol solutions, but the Solutol is the best candidate having the lowest freezing point (see Table 10) and a high SR13668 solubility (see Table 11). […] Vit E TPGS is water soluble natural-source vitamin E d-alpha tocopheryl polyethyleneglycol succinate, 387 IU/g. Myrj is Polyethylene Glycol (50) Monostearate.

SMILES: CCOC(=O)c1ccc2[nH]c3c(OC)c4[nH]c5ccc(C(=O)OCC)cc5c4cc3c2c1 [SR13668, 2,10-dicarbethoxy-6-methoxy-5,7-dihydro-indolo-(2,3-b)carbazole]
- bioavailability [1]: < 1%
- aqueous solubility [2]: extremely low
- solubility ([2]; 65 °C, aqueous with cosolvent or surfactant or cyclodextrin, Solutol, 65-70 ° C., HPLC): 7000 µg/mL (≈ 16300 µM)
- solubility ([2]; 65 °C, aqueous with cosolvent or surfactant or cyclodextrin, Vitamin E TPGS, 65-70 ° C., UV): 5500 µg/mL (≈ 12800 µM)
- solubility ([2]; 65 °C, organic solvent or mixture, Gelucire 44/14, 65-70 ° C., UV): 4260 µg/mL (≈ 9900 µM)
- solubility ([2]; 65 °C, organic solvent or mixture, Gelucire 50/13, 65-70 ° C., UV): 4150 µg/mL (≈ 9640 µM)
- solubility ([2]; 65 °C, organic solvent or mixture, Myrj 52, 65-70 ° C., UV): 6700 µg/mL (≈ 15600 µM)
- solubility ([2]; 65 °C, organic solvent or mixture, Myrj 53, 65-70 ° C., UV): 6800 µg/mL (≈ 15800 µM)
- solubility ([2]; 65 °C, organic solvent or mixture, PEG-400, 65-70 ° C., UV): 9000 µg/mL (≈ 20900 µM)
- solubility ([2]; 65 °C, organic solvent or mixture, PEG-400 New, 65-70 ° C., UV): 7600 µg/mL (≈ 17700 µM)
- solubility ([2]; 65 °C, organic solvent or mixture, PEG-1000, 65-70 ° C., UV): 8150 µg/mL (≈ 18900 µM)
- solubility ([2]; 65 °C, organic solvent or mixture, PEG-2000, 65-70 ° C., UV): 8800 µg/mL (≈ 20400 µM)
- solubility ([2]; fassgf or other biorelevant, Simulated Intestinal Fluid, RT, HPLC): 0.0075 µg/mL (≈ 0.0174 µM)
- solubility ([2]; oil or lipid, Corn Oil, RT, HPLC): 108 µg/mL (≈ 251 µM)
- solubility ([2]; oil or lipid, Safflower Oil, RT, HPLC): 77 µg/mL (≈ 179 µM)
- solubility ([2]; oil or lipid, Sesame Oil, RT, HPLC): 47 µg/mL (≈ 109 µM)
- solubility ([2]; oil or lipid, Soybean Oil, RT, HPLC): 55 µg/mL (≈ 128 µM)
- solubility ([2]; oil or lipid, Sunflower Oil, RT, HPLC): 66 µg/mL (≈ 153 µM)
- solubility ([2]; organic solvent or mixture, 1-octanol, RT, HPLC): 123 µg/mL (≈ 286 µM)
- solubility ([2]; organic solvent or mixture, Absolute Ethanol, RT, HPLC): 75 µg/mL (≈ 174 µM)
- solubility ([2]; organic solvent or mixture, Acetone, RT, HPLC): 950 µg/mL (≈ 2210 µM)
- solubility ([2]; organic solvent or mixture, Acetonitrile, RT, HPLC): 84.9 µg/mL (≈ 197 µM)
- solubility ([2]; organic solvent or mixture, Chemophore EL, RT, HPLC): 264 µg/mL (≈ 613 µM)
- solubility ([2]; organic solvent or mixture, DMSO, RT, UV): 106000 µg/mL (≈ 246000 µM)
- solubility ([2]; organic solvent or mixture, Ethanol, RT, UV): 148 µg/mL (≈ 344 µM)
- solubility ([2]; organic solvent or mixture, Ethyl Acetate, RT, HPLC): 230 µg/mL (≈ 534 µM)
- solubility ([2]; organic solvent or mixture, Glycerin, RT, HPLC): 47 µg/mL (≈ 109 µM)
- solubility ([2]; organic solvent or mixture, Labrasol, RT, UV): 380 µg/mL (≈ 883 µM)
- solubility ([2]; organic solvent or mixture, Methanol, RT, UV): 86.3 µg/mL (≈ 200 µM)
- solubility ([2]; organic solvent or mixture, Methylene Chloride, RT, HPLC): 62 µg/mL (≈ 144 µM)
- solubility ([2]; organic solvent or mixture, PEG-400, RT, UV): 880 µg/mL (≈ 2040 µM)
- solubility ([2]; organic solvent or mixture, PEG-400 New, RT, UV): 1370 µg/mL (≈ 3180 µM)
- solubility ([2]; organic solvent or mixture, Pluronic F-127, 120 ° C., HPLC): 9480 µg/mL (≈ 22000 µM)
- solubility ([2]; organic solvent or mixture, Propylene Glycol, RT, HPLC): 84 µg/mL (≈ 195 µM)
- solubility ([2]; Simulated Gastric Fluid, RT, HPLC): 0.014 µg/mL (≈ 0.0325 µM)
- solubility ([2]; Water, RT, HPLC): 0.01 µg/mL (≈ 0.0232 µM)
